Source: US9744222B2, “Peptide for vaccine” (Circassia Limited, priority 2007, dated 2017)
Where a SMILES comes first, the peptide text is derived from it.

tested on: not listed separately; experiment: Precipitation in aqueous solution of the binding assay; format: physicochemical; details: lowest concentration at which an insoluble white precipitate is seen in the aqueous solution of the binding assay
From the text: This is a characteristic of promiscuous HLA-DRB1* binders.

Compound	Precipitation in assay [µM]
VSMEYDLAYKLGDLH [HDM40A]	10000
HDDVVSMEYDLAYKL [HDM39A]	10000

same assay, conditions: lowest concentration at which an insoluble white precipitate is seen, value in brackets

Compound	Precipitation in assay
VSMEYDLAYKLGDLH [HDM40A]	(1.8 mg/ml)
HDDVVSMEYDLAYKL [HDM39A]	(1.8 mg/ml)

tested on: PBMC's; experiment: Cytokine release assay (IL-13, IFN-gamma); format: cell-based, human; details: IL-13 or IFN-gamma response greater than 100 pg/ml
Description: Cytokine secretion profiles from PBMC's are analysed in response to the peptide stimulation using the peptides from Example 3.
Thus, an individual was considered to have responded to a peptide if cells from that individual yielded a response greater than 100 pg/ml for either […] or IFN-gamma.

Compound	Ranking of peptides by percentage of responders (in words)
SYYRYVAREQS [HDM205]	top five peptides

tested on: not listed separately; experiment: Solubility pre-screen of peptides; details: pre-screened for solubility in an aqueous, acidic milieu; YES/NO
Description: Methods The assay employed is a competitive MHC class II binding assay, wherein each peptide is analysed for its ability to displace a known control binder from each of the human MHC class II allotypes investigated.
Also shown is the solubility status of the peptide at the highest concentrations in the aqueous solution of the binding assay. The value illustrates the lowest concentration at which an insoluble white precipitate is seen.

Compound	Solubility test
CC(C)C[C@H](NC(=O)[C@H](CCC(N)=O)NC(=O)[C@H](Cc1ccccc1)NC(=O)[C@@H]1CCCN1C(=O)[C@@H](N)CCCCN)C(=O)N[C@@H](CCC(=O)O)C(=O)N[C@@H](C)C(=O)N[C@H](C(=O)N[C@@H](Cc1ccccc1)C(=O)N[C@@H](CCC(=O)O)C(=O)N[C@@H](C)C(=O)N[C@@H](CC(N)=O)C(=O)N[C@@H](CCC(N)=O)C(=O)N[C@@H](CC(N)=O)C(=O)N[C@H](C(=O)O)[C@@H](C)O)C(C)C [HDM21] (H-KPFQLEAVFEANQNT-OH; N-terminus and C-terminus assumed)	YES
CC(C)C[C@H](NC(=O)[C@H](CC(=O)O)NC(=O)[C@H](CC(C)C)NC(=O)[C@H](CCC(=O)O)NC(=O)[C@H](CO)NC(=O)[C@@H]1CCCN1C(=O)[C@@H](NC(=O)[C@H](CC(N)=O)NC(=O)[C@@H](NC(=O)[C@H](CO)NC(=O)[C@@H](N)CC(N)=O)C(C)C)C(C)C)C(=O)N[C@@H](CCCNC(=N)N)C(=O)N[C@@H](CO)C(=O)N[C@@H](CC(C)C)C(=O)N[C@@H](CCCNC(=N)N)C(=O)N[C@H](C(=O)O)[C@@H](C)O [HDM17] (H-NSVNVPSELDLRSLRT-OH; N-terminus and C-terminus assumed)	YES
CC(C)[C@H](NC(=O)CNC(=O)[C@H](CC(=O)O)NC(=O)[C@H](CCC(=O)O)NC(=O)[C@H](CO)NC(=O)[C@H](CCCCN)NC(=O)[C@@H](NC(=O)[C@H](CC(N)=O)NC(=O)[C@H](C)N)C(C)C)C(=O)N[C@H](C(=O)N[C@@H](CCCCN)C(=O)N[C@@H](C)C(=O)N[C@@H](Cc1c[nH]cn1)C(=O)O)C(C)C [HDM37] (H-ANVKSEDGVVKAH-OH; N-terminus and C-terminus assumed)	YES
CC(C)[C@H](NC(=O)[C@H](C)NC(=O)[C@@H](N)CCC(=O)O)C(=O)N[C@@H](Cc1ccccc1)C(=O)N[C@@H](CCC(=O)O)C(=O)N[C@@H](C)C(=O)N[C@@H](CC(N)=O)C(=O)N[C@@H](CCC(N)=O)C(=O)N[C@@H](CC(N)=O)C(=O)N[C@H](C(=O)N[C@@H](CCCCN)C(=O)N[C@H](C(=O)N[C@@H](C)C(=O)N[C@@H](CCCCN)C(=O)O)[C@@H](C)O)[C@@H](C)O [HDM22A] (H-EAVFEANQNTKTAK-OH; N-terminus and C-terminus assumed)	YES
CC[C@H](C)[C@H](NC(=O)[C@H](C)NC(=O)[C@@H](N)[C@@H](C)O)C(=O)N[C@@H](Cc1ccccc1)C(=O)N[C@@H](CCC(N)=O)C(=O)N[C@@H](CC(=O)O)C(=O)N[C@H](C(=O)N[C@H](C(=O)N[C@@H](CCCNC(=N)N)C(=O)N[C@@H](C)C(=O)N[C@@H](CCC(=O)O)C(=O)N[C@@H](CCSC)C(=O)N[C@H](C(=O)N[C@@H](CCCCN)C(=O)O)[C@@H](C)O)C(C)C)[C@@H](C)O [HDM48] (H-TAIFQDTVRAEMTK-OH; N-terminus and C-terminus assumed)	YES
CC[C@H](C)[C@H](N)C(=O)NCC(=O)N[C@H](C(=O)N[C@@H](CCCCN)C(=O)N[C@@H](CC(=O)O)C(=O)N[C@@H](CC(C)C)C(=O)N[C@@H](CC(=O)O)C(=O)N[C@@H](C)C(=O)N[C@@H](Cc1ccccc1)C(=O)N[C@@H](CCCNC(=N)N)C(=O)N[C@@H](Cc1c[nH]cn1)C(=O)N[C@@H](Cc1ccc(O)cc1)C(=O)N[C@@H](CC(=O)O)C(=O)O)[C@@H](C)CC [HDM11] (H-IGIKDLDAFRHYD-OH; N-terminus and C-terminus assumed)	YES
CC(C)C[C@H](NC(=O)[C@H](CC(=O)O)NC(=O)[C@H](CC(C)C)NC(=O)[C@H](CO)NC(=O)[C@H](CCC(N)=O)NC(=O)[C@H](CC(N)=O)NC(=O)[C@@H](N)CCCNC(=N)N)C(=O)N[C@@H](C)C(=O)N[C@@H](CCC(=O)O)C(=O)N[C@@H](CCC(N)=O)C(=O)N[C@@H](CCC(=O)O)C(=O)N[C@@H](CC(C)C)C(=O)N[C@H](C(=O)N[C@@H](CC(=O)O)C(=O)N[C@@H](CS)C(=O)N[C@@H](C)C(=O)N[C@@H](CO)C(=O)N[C@@H](CCC(N)=O)C(=O)N[C@@H](Cc1c[nH]cn1)C(=O)O)C(C)C [HDM03C] (H-RNQSLDLAEQELVDCASQH-OH; N-terminus and C-terminus assumed)	YES
CC[C@H](C)[C@H](NC(=O)CNC(=O)[C@@H](NC(=O)[C@@H](N)Cc1c[nH]cn1)[C@@H](C)CC)C(=O)N[C@H](C(=O)N[C@@H](CC(=O)O)C(=O)N[C@@H](CC(C)C)C(=O)N[C@@H](CCCCN)C(=O)NCC(=O)N[C@@H](CCC(=O)O)C(=O)N[C@@H](CC(C)C)C(=O)N[C@@H](CC(=O)O)C(=O)N[C@@H](CCSC)C(=O)N[C@@H](CCCNC(=N)N)C(=O)N[C@@H](CC(N)=O)C(=O)O)[C@@H](C)CC [HDM31A] (H-HIGIIDLKGELDMRN-OH; N-terminus and C-terminus assumed)	YES
CC[C@H](C)[C@H](NC(=O)[C@H](CCC(=O)O)NC(=O)[C@@H](NC(=O)[C@H](CCCCN)NC(=O)[C@H](C)N)[C@@H](C)CC)C(=O)N[C@@H](CCCCN)C(=O)N[C@@H](C)C(=O)N[C@@H](CO)C(=O)N[C@@H](CC(C)C)C(=O)N[C@@H](CC(=O)O)C(=O)NCC(=O)N[C@@H](CC(C)C)C(=O)N[C@@H](CCC(=O)O)C(=O)O [HDM27] (H-AKIEIKASLDGLE-OH; N-terminus and C-terminus assumed)	YES
CSCC[C@H](NC(=O)[C@@H]1CCCN1C(=O)[C@H](CC(=O)O)NC(=O)[C@H](Cc1ccccc1)NC(=O)[C@@H](NC(=O)[C@H](CCC(=O)O)NC(=O)[C@H](CO)NC(=O)[C@@H](N)CCCCN)[C@@H](C)O)C(=O)N[C@@H](CCCCN)C(=O)N[C@H](C(=O)N1CCC[C@H]1C(=O)N[C@@H](CC(=O)O)C(=O)N[C@@H](Cc1c[nH]cn1)C(=O)N[C@@H](CO)C(=O)N[C@@H](CC(=O)O)C(=O)O)C(C)C [HDM29B] (H-KSETFDPMKVPDHSD-OH; N-terminus and C-terminus assumed)	YES
CC[C@H](C)[C@H](NC(=O)[C@H](C)NC(=O)[C@H](C)NC(=O)[C@@H](NC(=O)[C@H](C)NC(=O)[C@H](CCC(=O)O)NC(=O)[C@H](CC(=O)O)NC(=O)[C@@H](NC(=O)[C@H](C)NC(=O)[C@@H](N)CCCCN)C(C)C)C(C)C)C(=O)N[C@@H](CCC(=O)O)C(=O)N[C@@H](CCCCN)C(=O)N[C@@H](CO)C(=O)O [HDM28] (H-KAVDEAVAAIEKS-OH; N-terminus and C-terminus assumed)	YES
CC[C@H](C)[C@H](N)C(=O)N[C@@H](CC(=O)O)C(=O)N[C@@H](CC(C)C)C(=O)N[C@@H](CCCCN)C(=O)NCC(=O)N[C@@H](CCC(=O)O)C(=O)N[C@@H](CC(C)C)C(=O)N[C@@H](CC(=O)O)C(=O)N[C@@H](CCSC)C(=O)N[C@@H](CCCNC(=N)N)C(=O)N[C@@H](CC(N)=O)C(=O)N[C@H](C(=O)N[C@@H](CCC(N)=O)C(=O)N[C@H](C(=O)N[C@@H](CCCNC(=N)N)C(=O)O)C(C)C)[C@@H](C)CC [HDM32A] (H-IDLKGELDMRNIQVR-OH; N-terminus and C-terminus assumed)	YES
CC[C@H](C)[C@H](NC(=O)[C@H](CCC(=O)O)NC(=O)[C@H](Cc1c[nH]cn1)NC(=O)[C@H](CC(N)=O)NC(=O)[C@H](C)NC(=O)[C@H](CS)NC(=O)[C@H](CC(=O)O)NC(=O)[C@H](CCCCN)NC(=O)[C@@H](NC(=O)[C@H](CC(=O)O)NC(=O)[C@@H](NC(=O)[C@H](CCC(N)=O)NC(=O)[C@@H](N)CC(=O)O)C(C)C)C(C)C)C(=O)N[C@@H](CCCCN)C(=O)N[C@@H](CCCCN)C(=O)O [HDM19] (H-DQVDVKDCANHEIKK-OH; N-terminus and C-terminus assumed)	YES
CC[C@H](C)[C@H](NC(=O)[C@@H]1CCCN1C(=O)[C@@H](NC(=O)[C@@H](NC(=O)[C@@H](NC(=O)[C@@H](N)CCCNC(=N)N)[C@@H](C)O)C(C)C)[C@@H](C)O)C(=O)N[C@@H](CCCNC(=N)N)C(=O)N[C@@H](CCSC)C(=O)N[C@@H](CCC(N)=O)C(=O)NCC(=O)NCC(=O)N[C@@H](CS)C(=O)NCC(=O)O [HDM02] (H-RTVTPIRMQGGCG-OH; N-terminus and C-terminus assumed)	YES
CC[C@H](C)[C@H](N)C(=O)N[C@@H](CC(=O)O)C(=O)N[C@@H](CC(C)C)C(=O)N[C@@H](CCCCN)C(=O)NCC(=O)N[C@@H](CCC(=O)O)C(=O)N[C@@H](CC(C)C)C(=O)N[C@@H](CC(=O)O)C(=O)N[C@@H](CCSC)C(=O)N[C@@H](CCCNC(=N)N)C(=O)N[C@@H](CC(N)=O)C(=O)N[C@H](C(=O)N[C@@H](CCC(N)=O)C(=O)O)[C@@H](C)CC [HDM32] (H-IDLKGELDMRNIQ-OH; N-terminus and C-terminus assumed)	YES
